Assay results published in patent US20250066380A1, “NOVEL FURANO-NAPHTHOQUINONE AND NOVEL PYRAZINONE COMPOUNDS FROM AMYCOLATOPSIS AND ACTIVITIES THEREOF” (COUNCIL OF SCIENTIFIC AND INDUSTRIAL RESEARCH (AN INDIAN …, priority 2022, published 2025).
Converted amounts (≈) assume the structure as drawn. Like-named read-outs stand apart in the source and are kept apart here.

Assays:
A549 (lung cancer) = assay: MTT cell viability assay; format: cell-based; conditions: Homo sapiens, A549, 24 hours treatment
Method: (§1) MTT assay was used for the study of cell viability, which measured cellular metabolic activity based on the ability of nicotinamide adenine dinucleotide phosphate (NADPH) dependent oxidoreductase enzymes to reduce the yellow tetrazolium salt 3-[4,5-dimethylthiazole-2-yl]-2,5-diphenyltetrazolium bromide (MTT) to purple formazan crystals. The cell lines used for the study were A549 (lung cancer), HeLa (Cervical cancer) and MDA MB-231 (Breast cancer), which were seeded with a density of 10,000 cells/well into 96-well plates and incubated at 37° C. with 5% CO2 for 20 hours. The compounds with different concentrations were used to treat the cells for 24 hours. The medium was replaced with 100 μL of MTT solution (0.5 mg/mL in DMEM) and then incubated for 4 h at 37° C. in dark. Subsequently, MTT solution was removed and the formazan crystals were solubilized by addition of 100 μl DMSO. The optical density was measured at 570 nm by a Biotek synergy H1 microplate reader.

HeLa (Cervical cancer) = assay: MTT cell viability assay; format: cell-based; conditions: Homo sapiens, 24 hours treatment
Method: as §1

[1] = test system: MDA MB-231 (Breast cancer); assay: MTT cell viability assay; format: cell-based; conditions: Homo sapiens, MDA-MB-231, 24 hours treatment
Method: as §1

[2] = test system: blood-stage Plasmodium falciparum (3D7 strain); assay: Antimalarial activity, SYBR green staining-based parasitemia determination; format: cell-based; conditions: P. falciparum 3D7
Method: The antimalarial activity was carried out on blood-stage Plasmodium falciparum (3D7 strain) with various concentrations ranging from 10 μM to 0.01 μM by 5 SYBR green staining-based parasitemia determination. Parasite cultures were incubated with the test compounds for 60 h under optimal growth conditions, following which the cells were lysed with 0.01% Triton X and stained with SYBR Green I nucleic acid stain (Thermo Fisher Scientific) to estimate parasite growth and inhibition. Fluorescence readings were obtained with a GloMax plate reader (Promega) after 15 min incubation in the dark and raw fluorescence readings were processed. The % growth inhibition values were estimated from comparisons between test and control samples.

Gram-positive bacteria = assay: MIC, panel of Gram positive bacteria; format: cell-based
Method: (§2) The MICs of the purified compounds were done according to CLSI guidelines using Mueller Hinton broth (Hi media) against panel of six Gram positive bacteria S.aureus, S.epidermidis, B.cereus, B.subtilis, M.luteus and L.monocytogenes, two Gram negative bacteria E.coli and P.aeruginosa, and four MRSA (Methicillin resistant S.aureus) clinical strain. The stock solution of compounds were made at 10 mg/ml in DMSO. The test compounds (highest concentration 128 μg/ml) were serially diluted in 50 μl of Mueller Hinton broth and 50 μl of bacterial suspension were added to reach the final desired cell density of 5×10^5 CFU ml^−1 in each well of 96 well microtiter plate except the media control. The medium, untreated culture, DMSO, ampicillin and kanamycin were used as controls. […] The MICs were defined as the lowest concentration that inhibited visible growth of bacteria.

MRSA_10B = assay: MIC, CLSI broth microdilution, MRSA clinical strain; format: cell-based, Methicillin resistant S.aureus; conditions: Mueller Hinton broth, 18 hours at 37° C., highest concentration 128 μg/ml
Method: as §2

MRSA_3B = assay: as above; format: cell-based, Methicillin resistant S.aureus; conditions: Mueller Hinton broth, 18 hours at 37° C., highest concentration 128 μg/ml
Method: as §2

MRSA_9B = assay: as above; format: cell-based, Methicillin resistant S.aureus; conditions: Mueller Hinton broth, 18 hours at 37° C., highest concentration 128 μg/ml
Method: as §2

MRSA_6B = assay: as above; format: cell-based, Methicillin resistant S.aureus; conditions: Mueller Hinton broth, 18 hours at 37° C., highest concentration 128 μg/ml
Method: as §2

[3] = test system: Bacillus cereus ATCC 11778; assay: MIC, CLSI broth microdilution; format: cell-based; conditions: Mueller Hinton broth, 18 hours at 37° C., highest concentration 128 μg/ml
Method: as §2

[4] = test system: Micrococcus luteus ATCC 9341; assay: MIC, CLSI broth microdilution; format: cell-based; conditions: Mueller Hinton broth, 18 hours at 37° C., highest concentration 128 μg/ml
Method: as §2

[5] = test system: Staphylococcus epidermidis ATCC; assay: MIC, CLSI broth microdilution; format: cell-based; conditions: Mueller Hinton broth, 18 hours at 37° C., highest concentration 128 μg/ml
Method: as §2

[6] = test system: Staphylococcus aureus ATCC 9144; assay: MIC, CLSI broth microdilution; format: cell-based; conditions: Mueller Hinton broth, 18 hours at 37° C., highest concentration 128 μg/ml
Method: as §2

[7] = test system: Listeria monocytogenes ATCC 19111; assay: MIC, CLSI broth microdilution; format: cell-based; conditions: Mueller Hinton broth, 18 hours at 37° C., highest concentration 128 μg/ml
Method: as §2

[8] = test system: Bacillus subtilis ATCC 6633; assay: MIC, CLSI broth microdilution; format: cell-based; conditions: Mueller Hinton broth, 18 hours at 37° C., highest concentration 128 μg/ml
Method: as §2

[9] = test system: MDA-MB-231, A549 and HeLa; assay: MTT cell viability assay, tested cancer cell lines; format: cell-based
Method: as §1

[10] = test system: Mycobacterium smegmatis ATCC 607; assay: MIC, Middlebrook 7H9 medium; format: cell-based; conditions: for MIC: Middlebrook 7H9 medium, 48 hours at 37° C., highest concentration 128 μg/ml
[11] = test system: resistant clinical bacterial strains; assay: MIC, resistant clinical bacterial strains; format: cell-based, MRSA (Methicillin resistant S.aureus)
Method: as §2

[12] = test system: Pseudomonas aeruginosa ATCC 9027; assay: MIC, CLSI broth microdilution; format: cell-based; conditions: Mueller Hinton broth, 18 hours at 37° C., highest concentration 128 μg/ml
Method: as §2

[13] = test system: Escherichia coli ATCC 8739; assay: MIC, CLSI broth microdilution; format: cell-based; conditions: ATCC8739, Mueller Hinton broth, 18 hours at 37° C., highest concentration 128 μg/ml
Method: as §2

[14] = Staphylococcus aureus, read-out: MIC
[15] = Bacillus cereus, ATCC11778, read-out: MIC
[16] = Micrococcus luteus, ATCC9341, read-out: MIC
[17] = Staphylococcus epidermidis, read-out: MIC
[18] = Staphylococcus aureus, ATCC9144, read-out: MIC
[19] = Listeria monocytogenes, ATCC19111, read-out: MIC
[20] = Bacillus subtilis, ATCC6633, read-out: MIC
[21] = Mycolicibacterium smegmatis, ATCC607, read-out: MIC

SMILES	IC50 (A549 (lung cancer)) [µg/mL]	IC50 (HeLa (Cervical cancer)) [µg/mL]	IC50 [1] [µg/mL]	MIC (MRSA_10B; [14]) [µg/mL]	MIC (MRSA_3B; [14]) [µg/mL]	MIC (MRSA_9B; [14]) [µg/mL]	MIC (MRSA_6B; [14]) [µg/mL]	MIC [3, 15] [µg/mL]	MIC [4, 16] [µg/mL]	MIC [5, 17] [µg/mL]	MIC [6, 18] [µg/mL]	MIC [7, 19] [µg/mL]	MIC [8, 20] [µg/mL]	MIC [10, 21] [µg/mL]	antimalarial activity [2]	antibacterial activity against Gram-positive bacteria (Gram-positive bacteria)	anticancer activity [9]	also measured
CC1(C)S[C@@H]2[C@H](NC(=O)[C@H](N)c3ccccc3)C(=O)N2[C@H]1C(=O)O [Ampicilli, ampicillin, reference compound]	–	–	–	–	–	–	–	–	–	–	–	–	–	–	–	–	–	MIC [10]: 64 µg/mL (≈ 183 µM); MIC (MRSA_10B): 4 µg/mL (≈ 11.4 µM); MIC (MRSA_3B): 8 µg/mL (≈ 22.9 µM); MIC (MRSA_9B): 16 µg/mL (≈ 45.8 µM); MIC (MRSA_6B): 8 µg/mL (≈ 22.9 µM); MIC [3]: 16 µg/mL (≈ 45.8 µM); MIC [4]: 0.03 µg/mL (≈ 0.0859 µM); MIC [5]: 1 µg/mL (≈ 2.86 µM); MIC [6]: 0.03 µg/mL (≈ 0.0859 µM); MIC [7]: 0.03 µg/mL (≈ 0.0859 µM); MIC [12]: 2 µg/mL (≈ 5.72 µM); MIC [8]: 0.03 µg/mL (≈ 0.0859 µM)
NC[C@H]1O[C@H](O[C@H]2[C@H](O)[C@@H](O[C@H]3O[C@H](CO)[C@@H](O)[C@H](N)[C@H]3O)[C@H](N)C[C@@H]2N)[C@H](O)[C@@H](O)[C@@H]1O [Kanamycin, kanamycin, reference compound]	–	–	–	–	–	128 (≈ 264 µM)	–	2 (≈ 4.13 µM)	8 (≈ 16.5 µM)	1 (≈ 2.06 µM)	8 (≈ 16.5 µM)	1 (≈ 2.06 µM)	0.5 (≈ 1.03 µM)	0.25 (≈ 0.516 µM)	–	–	–	MIC [13]: 8 µg/mL (≈ 16.5 µM); MIC ([12]; Pseudomonas aeruginosa, ATCC9027, read-out: MIC): 8 µg/mL (≈ 16.5 µM)

Now from value to compound, other results behind:

IC50 (A549 (lung cancer)) [µg/mL]	IC50 (HeLa (Cervical cancer)) [µg/mL]	IC50 [1] [µg/mL]	MIC (MRSA_10B; [14]) [µg/mL]	MIC (MRSA_3B; [14]) [µg/mL]	MIC (MRSA_9B; [14]) [µg/mL]	MIC (MRSA_6B; [14]) [µg/mL]	MIC [3, 15] [µg/mL]	MIC [4, 16] [µg/mL]	MIC [5, 17] [µg/mL]	MIC [6, 18] [µg/mL]	MIC [7, 19] [µg/mL]	MIC [8, 20] [µg/mL]	MIC [10, 21] [µg/mL]	SMILES	antimalarial activity [2]	antibacterial activity against Gram-positive bacteria (Gram-positive bacteria)	anticancer activity [9]	also measured
40.2	15.4	14.1	128 (≈ 453 µM)	128 (≈ 453 µM)	128 (≈ 453 µM)	128 (≈ 453 µM)	128 (≈ 453 µM)	64 (≈ 227 µM)	64 (≈ 227 µM)	128 (≈ 453 µM)	128 (≈ 453 µM)	128 (≈ 453 µM)	–	CC(C)Cc1nc(C(C)C(=O)O)c(C(C)C)n(O)c1=O (stereo not drawn) [Compound C-4]	moderately active	weakly active	moderate activity	–
2.14	3.53	1.79	4 (≈ 12.1 µM)	4 (≈ 12.1 µM)	4 (≈ 12.1 µM)	4 (≈ 12.1 µM)	8 (≈ 24.2 µM)	8 (≈ 24.2 µM)	2 (≈ 6.06 µM)	2 (≈ 6.06 µM)	2 (≈ 6.06 µM)	4 (≈ 12.1 µM)	64 (≈ 194 µM)	CC1OC2OC3C4=C(OC3(C)C12O)C(=O)c1c(O)cccc1C4=O (stereo not drawn) [Compound C-1]	–	good antibacterial activity	–	activity against Mycobacterium smegmatis [10]: weakly active; EC50 ([2]; Plasmodium falciparum, read-out: antimalarial activity (bound)): < 1 µM; activity against the resistant clinical bacterial strains [11]: active; IC50 ([9]; read-out: IC50 value range over the tested cancer cell lines): 1.79 to 8.82 µg/mL
44.9	36	19.1	–	–	–	–	–	–	–	–	–	–	–	CC1OC2OC3C(C)(OC4(O)C(=O)c5c(O)cccc5C(=O)C34O)C12O (stereo not drawn) [Compound C-2]	moderately active	weakly active	moderate activity	–
